# Assay results published in patent US20230029486A1, “A METHOD FOR ENHANCING THE PHARMACOKINETICS OR INCREASING THE PLASMA CONCENTRATION OF METHYL 3-((METHYLSULFONYL)AMINO)-2-(((4-PHENYLCYCLOHEXYL)OXY)METHYL)PIPERIDINE-1-CARBOXYLATE OR A SALT THEREOF WITH AN INHIBITOR OF CYTOCHROME P450” (TAKEDA PHARMACEUTICAL COMPANY LIMITED, priority 2020, published 2023).
# Like-named read-outs stand apart in the source and are kept apart here.
# Legend:
# [1] = Phase 1 open-label study: single-dose plasma pharmacokinetics of Compound A with and without cobicistat; assay type: in vivo, human; details: for DNAUCinf112 (Day 12) / DNAUClast112 (Day 12) / DNCmax112 (Day 12): 14 mg Compound A oral + MD 150 mg cobicistat; for DNAUCinf112 (Day 12) / DNAUClast112 (Day 12) / DNCmax112 (Day 12) / DNAUCi nf 112Ratio (Day 12/Day 3) / DNAUCla st 112Ratio (Day 12/Day 3) / DNCma x 112Ratio (Day 12/Day 3) / DNAUCinf112 (Day 3) / DNAUClast112 (Day 3) / DNCmax112 (Day 3): n=15; for DNAUCi nf 112Ratio (Day 12/Day 3) / DNAUCla st 112Ratio (Day 12/Day 3) / DNCma x 112Ratio (Day 12/Day 3): 14 mg oral + cobicistat versus 112 mg oral alone, dose-normalized
# Text: The purpose of this study was to evaluate the effect of cobicistat on Compound A. The primary goal was to evaluate whether cobicistat can boost plasma concentrations of oral Compound A in humans and therefore, can be used in combination with Compound A as part of an oral dose regimen. The magnitude of this intentional drug-drug interaction (DDI) is also quantified. This was a non-randomized, open-label, fixed-sequence study in healthy male and female (women of non-childbearing potential [WONCBP]) subjects. […] Predose blood samples for cobicistat PK were also collected on Days 7, 9, 10, and 11. […] PK blood samples for cobicistat were collected predose on Day 12 and up until 24 hours post cobicistat dosing and at 24-hour post Day 13 cobicistat dosing. Plasma pharmacokinetic parameters of Compound A after oral administration with and without cobicistat as follows • Maximum observed concentration (Cmax). • Area under the concentration-time curve from time 0 to infinity, calculated using the observed value of the last quantifiable concentration (AUCinf). • Area under the concentration-time curve from time 0 to the time of the last quantifiable concentration (AUClast). […] Plasma pharmacokinetic parameters of Compound A after oral administration with and without cobicistat (Cmax, AUCinf and AUClast) were calculated.
# [2] = Safety and tolerability of single oral dose of Compound A with and without cobicistat; assay type: in vivo, human; details: single oral dose of Compound A with steady state cobicistat, healthy adult subjects
# Experimental: · To evaluate the safety and tolerability of a single oral dose of Compound A with and without cobicistat.
# Safety was assessed by monitoring for adverse events (AEs), vital signs, safety 12-lead electrocardiograms (ECGs), safety laboratory assessments, pulse oximetry, C-SSRS (Columbia Suicide Severity Rating Scale), and physical examinations throughout the study.
# [3] = test system: rodent model of narcolepsy; details: cited from earlier work
# nonhuman primates = details: cited from earlier work
# healthy mice = details: cited from earlier work
# [4] = intravenous single dose studies, healthy volunteers and NT1 patients; cited from earlier work
# CYP3A = experiment: Midazolam as in vivo probe for human CYP3A activity under cobicistat; details: 0.5 mg midazolam oral with 150 mg cobicistat QD, Day 7 and Day 10, versus 1 mg midazolam alone
# Experimental: Midazolam is a benzodiazepine derivative that is exclusively metabolized by the CYP3A enzymatic pathway and therefore, was used as an in vivo probe for human CYP3A activity.
# On Day 1, subjects received 1 mg midazolam orally and pharmacokinetic (PK) blood samples for midazolam (and its metabolite 1-hydroxy (1-OH) midazolam) were collected predose and up until 24 hours postdose to establish baseline cytochrome P450 (CYP) 3A activity.
# On Days 7 and 10, 0.5 mg midazolam were administered orally (30 minutes after the cobicistat dose) and PK blood for midazolam and 1-OH midazolam were collected on each of these days, predose and up until 24 hours post midazolam dosing.
# Blood PK sampling for midazolam and its metabolite (1-hydroxymidazolam): • Study Day 1: predose (prior to midazolam administration), 0.5, 1, 1.5, 2, 4, 6, 8, 12 hours postdose • Study Day 2: 24 hours post Day 1 dosing and prior to start of Compound A IV infusion • Study Day 7: predose (prior to cobicistat and midazolam administration), 0.5, 1, 1.5, 2, 4, 6, 8, 12 hours post midazolam dosing • Study Day 8: 24 hours post Day 7 midazolam dosing and prior to cobicistat administration • Study Day 10: predose (prior to cobicistat and midazolam administration), 0.5, 1, 1.5, 2, 4, 6, 8, 12 hours post midazolam dosing • Study Day 11: 24 hours post Day 10 midazolam dosing and prior to cobicistat administration
# [5] = 14 mg Compound A oral + QD 150 mg cobicistat compared to 14 mg IV alone (9-hour IV infusion)
# [6] = 14 mg Compound A oral + QD 150 mg cobicistat versus 112 mg oral alone, dose-normalized to 112 mg
# [7] = 112 mg Compound A oral alone compared to 14 mg Compound A IV alone
# [8] = Geom Mean, dose-normalized to 112 mg
# [9] = Geom Mean, 112 mg Compound A oral alone
# [10] = Mean, dose-normalized to 112 mg
# [11] = Mean, 112 mg Compound A oral alone
structure (smiles),measurement,setting,value
"COC(=O)N1CCC[C@H](NS(C)(=O)=O)[C@@H]1CO[C@H]1CC[C@@H](c2ccccc2)CC1 [Compound A, methyl (2R,3S)-3-((methylsulfonyl)amino)-2-(((cis-4-phenylcyclohexyl)oxy)methyl)piperidine-1-carboxylate]",mean t1/2z,[1]; 14 mg Compound A IV alone,3.7 h
same,mean t1/2z,[1]; 14 mg Compound A oral + QD 150 mg cobicistat,~ 8 hours
same,"geometric mean dose-normalized AUC∞, increase over IV",[1]; [5],2.8 fold
same,"geometric mean dose-normalized Cmax, increase over IV",[1]; [5],7.9 fold
same,increase of geometric LSM AUClast,[1]; [6],~109 fold
same,increase of geometric LSM AUC∞,[1]; [6],~109 fold
same,increase of geometric LSM Cmax,[1]; [6],approximately 50 fold
same,"dose-normalized Cmax, AUCinf and AUClast of plasma Compound A, Day 12 versus Day 3",[1]; 14 mg oral + MD 150 mg cobicistat versus 112 mg oral alone,much higher
same,mean t1/2z,[1]; 112 mg Compound A oral alone,4.9 h
same,"geometric mean dose-normalized AUC∞, lower than IV",[1]; [7],~97%
same,"geometric mean dose-normalized Cmax, lower than IV",[1]; [7],approximately 84%
same,DNAUCinf112 (Day 12),[1]; [8],7623 ng*hr/mL/112 mg Compound A
same,DNAUClast112 (Day 12),[1]; [8],7504 ng*hr/mL/112 mg Compound A
same,DNCmax112 (Day 12),[1]; [8],2253 ng/mL/112 mg Compound A
same,DNAUCi nf 112Ratio (Day 12/Day 3),[1]; Geom Mean,10942%
same,DNAUCla st 112Ratio (Day 12/Day 3),[1]; Geom Mean,10871%
same,DNCma x 112Ratio (Day 12/Day 3),[1]; Geom Mean,5028%
same,DNAUCinf112 (Day 3),[1]; [9],69.67 ng*hr/mL/112 mg Compound A
same,DNAUClast112 (Day 3),[1]; [9],69.02 ng*hr/mL/112 mg Compound A
same,DNCmax112 (Day 3),[1]; [9],44.81 ng/mL/112 mg Compound A
same,DNAUCinf112 (Day 12),[1]; [10],8448 ng*hr/mL/112 mg Compound A
same,DNAUClast112 (Day 12),[1]; [10],8231 ng*hr/mL/112 mg Compound A
same,DNCmax112 (Day 12),"[1]; Mean, dose-normalized to 112 mg, plasma, healthy subjects",2335 ng/mL/112 mg Compound A
same,DNAUCi nf 112Ratio (Day 12/Day 3),[1]; Mean,14349%
same,DNAUCla st 112Ratio (Day 12/Day 3),[1]; Mean,14385%
same,DNCma x 112Ratio (Day 12/Day 3),[1]; Mean,8290%
same,DNAUCinf112 (Day 3),[1]; [11],94.59 ng*hr/mL/112 mg Compound A
same,DNAUClast112 (Day 3),[1]; [11],94.21 ng*hr/mL/112 mg Compound A
same,DNCmax112 (Day 3),"[1]; Mean, 112 mg Compound A oral alone, plasma, healthy subjects",66.35 ng/mL/112 mg Compound A
same,"systemic exposures of Compound A administered orally, effect of cobicistat","[1]; via potent CYP3A inhibition, healthy adult subjects",significantly increased
same,safety and tolerability,[2],generally safe and well tolerated
COC(=O)N1CCCC(NS(C)(=O)=O)C1COC1CCC(c2ccccc2)CC1 (stereo not shown) [methyl 3-((methylsulfonyl)amino)-2-(((4-phenylcyclohexyl)oxy)methyl)piperidine-1-carboxylate],improving wakefulness,[3],significant effects
same,reducing cataplexy-like symptoms,[3],significant effects
same,wakefulness,nonhuman primates,promoted wakefulness
same,wakefulness,healthy mice,promoted wakefulness
same,safety and tolerability,[4],safe and well-tolerated
Cc1ncc2n1-c1ccc(Cl)cc1C(c1ccccc1F)=NC2 [midazolam],"midazolam Cmax, increase with cobicistat",CYP3A,approximately 5 fold
